According to PMC3853024, “Aromatase inhibitor treatment with an intravaginal device and its effect on pre-ovulatory ovarian follicles in a bovine model” (Reproductive Biology and Endocrinology : RB&E, 2013):
Where two headings read alike, the source gives them in different places.

Key:
plasma LH = assay: Plasma LH concentration (radioimmunoassay) in treated heifers; format: in vivo, cattle (Hereford-cross beef heifers); conditions: n=15, P=0.61
Method: Heifers in which a CL was detected were given two luteolytic doses of PGF (12 h apart) and monitored by ultrasonography for ovulation. Five to eight days later, the two largest ovarian follicles were ablated by transvaginal ultrasound-guided follicular aspiration to synchronize follicular wave emergence which was expected to occur 1 to 1.5 days later. Prostaglandin (500 μg cloprostenol, Estrumate, Schering-Plough Animal Health, Pointe-Claire, QC, Canada) was given intramuscularly at 60 and 72 h after follicular ablation to induce regression of the CL and shift from a non-ovulatory to an ovulatory follicular wave. […] Devices were inserted on Day 1 and were kept in place until Day 7 or until ovulation was detected, which ever occurred first. […]
Plasma LH concentrations were determined in duplicate using a double-antibody radioimmunoassay (NIDDK-bLH4). […] All samples were analyzed in a single assay; the intra-assay coefficient of variation was 11.4% for low reference samples (mean, 0.9 ng/mL) and 12.2% for high reference samples (mean, 2.1 ng/mL).
Statistical analyses were done using the Statistical Analysis System software package (SAS Learning Edition 9.1, 2006; SAS Institute Inc., Cary, NC, USA). Time-series data (hormone concentrations, follicle and CL diameter profiles) were analyzed by repeated measures using the PROC MIXED procedure. […]

[1] = Pharmacokinetics of a letrozole-containing intravaginal device in heifers (plasma letrozole by LCMS/MS); format: in vivo, cattle (Hereford-cross beef heifers); conditions: for half-life: read-out: Half-life (T1/2) (converted); for Cmax: read-out: Maximal concentration (Cmax); for MRT: read-out: Mean residence time (MRT); for clearance: read-out: Systemic clearance (ClS) (converted); for Vd/F: read-out: Volume of distribution (Vz/f)
Method: Intravaginal devices were prepared using a Cue-Mate spine (Bioniche Animal Health, Bellville, ON, Canada) assembled with two blank (progesterone-free) silicone pods that were coated with a gel-based vehicle containing letrozole or vehicle only (control). The vehicle contained the following (all ingredients % w/w): letrozole 10%, gelatin 20% (Gelatin type B, Fisher Scientific, Pittsburgh, PA, USA), polymer 65% (prepared by mixing distilled water 68%, Poloxamer 188 12% and Poloxamer 407 20%, both from Spectrum Chemical, New Brunswick, NJ, USA) and distilled water 5%.
Blood samples were collected by coccygeal venipuncture into 10 mL heparinized vacuum tubes (Becton Dickinson Vacutainer Systems, Franklin Lakes, NJ, USA). Samples were collected daily from pre-treatment follicular wave emergence (Day 0) to 12 days after the subsequent ovulation. In a subset of letrozole-treated animals (n=4), frequent blood samples were collected using an in-dwelling jugular catheter, as previously described, at the time of catheter placement and 0, 10, 20, 30 min, 1, 1.5, 2, 3, 4, 6, 8, 12 and 24 h after treatment for measurement of plasma letrozole concentration. Blood samples were centrifuged at 1500 × g for 20 min and plasma was separated and stored in plastic tubes at -20°C.
Plasma letrozole concentrations were quantified using liquid chromatography tandem mass spectrometry (LCMS/MS), as described. Briefly, letrozole was extracted from […] with […] of 0.1M ammonium acetate followed by the addition of 5 mL methyl t-butyl ether (MTBE) and vortexed for 15 s. The organic layer was removed and transferred to a fresh 15 mL plastic tube and dried by gentle nitrogen gas flow. The dried extract was reconstituted in 1 mL of 100% ethanol. Separation was accomplished by HPLC (Agilent 1200; Agilent, Santa Clara, CA, USA) fitted with an analytical column (50 × 2.1 mm, […] particle size; Betasil C18; Thermo Scientific, Waltham, MA, USA) operated at 35°C. Mass spectra were collected using a tandem mass spectrometer (SCIEX 3000; Applied Bioscience, Foster City, CA, USA) fitted with an electrospray ionisation source, operated in the negative ionisation mode. Quantification was performed using Analyst 1.4.1 software provided by SCIEX (Applied Bioscience). The minimum and maximum values along the standard curve were 0.25 and 500 ng/mL, respectively. The limit of quantification used in this method was 0.25 ng/mL and the mean recovery was 70%.
The following pharmacokinetic parameters were determined: Cmax (maximum observed plasma concentration of letrozole), tmax (time to reach Cmax), t1/2 (terminal elimination half-life), AUC (area under the plasma letrozole concentration-time curve from zero to infinity calculated as AUCtlast). The concentration of letrozole in plasma as a function of time (C–t) data for each heifer was analyzed by non-compartmental techniques using a computer modeling program (WinNonLin Standard Edition Version 2.1, Pharsight Corporation, Mountain View, CA, USA). Peak letrozole concentration in plasma (Cmax) and time to peak letrozole concentration (tmax) were determined using observed values. The apparent terminal rate constant (λ) was determined by linear regression of the last 6–8 points on the terminal phase of the logarithmic plasma concentration vs time curve. The area under the C–t curve until the final plasma sample (AUClast) was determined using the linear trapezoidal rule. The total area under the curve extrapolated to infinity (AUC0-∞) was calculated by adding the Clast obs/λ + AUClast. The terminal half-life (T1/2λ) was calculated as ln2 ⁄λ. The mean residence time (MRT) was calculated as the area under the moment curve extrapolated to infinity (AUMC0-∞) ⁄AUC0-∞. Systemic clearance (ClS) was determined using the dose divided by AUC0-inf. The apparent volume of distribution (Vλ/f) was calculated by clearance divided by λ. […]

[2] = Mean of 4 heifers, intravaginal device 1 g letrozole
[3] = female, Hereford-cross, bovine, plasma, 1 g, Heifer 1, intravaginal device 1 g letrozole
[4] = female, Hereford-cross, bovine, plasma, 1 g, Heifer 2, intravaginal device 1 g letrozole
[5] = female, Hereford-cross, bovine, plasma, 1 g, Heifer 3, intravaginal device 1 g letrozole
[6] = female, Hereford-cross, bovine, plasma, 1 g, Heifer 4, intravaginal device 1 g letrozole
[7] = female, Hereford-cross, bovine, plasma, 1 g, Mean of 4 heifers, intravaginal device 1 g letrozole

For `N#Cc1ccc(C(c2ccc(C#N)cc2)n2cncn2)cc1` [Letrozole], the “Mean plasma LH concentrations versus control” value (plasma LH) was “did not differ”, the “Area under the curve (AUClast)” value ([1]; Heifer 1, intravaginal device 1 g letrozole) was 3538.1 hours x ng/mL and the “Area under the curve (AUClast)” value ([1]; Heifer 2, intravaginal device 1 g letrozole) was 2697.7 hours x ng/mL. The “Area under the curve (AUClast)” value ([1]; Heifer 3, intravaginal device 1 g letrozole) was 2583.1 hours x ng/mL, the “Area under the curve (AUClast)” value ([1]; Heifer 4, intravaginal device 1 g letrozole) was 1698.0 hours x ng/mL and the “Area under the curve (AUClast)” value [1, 2] was 2629.2 hours x ng/mL. For the same compound, the “Half-life (T1/2)” value [1, 2] was 33.3 h, the half-life [1, 3] was 35.1 h and the Cmax [1, 3] was 32.4 ng/mL. For the same compound, the MRT [1, 3] was 71.5 h, the clearance [1, 3] was 1.67 mL/min/kg and the Vd/F [1, 3] was 6.2 L/kg. For the same compound, the half-life [1, 4] was 20.4 h, the Cmax [1, 4] was 35.3 ng/mL and the MRT [1, 4] was 56.2 h. The clearance [1, 4] was 3.33 mL/min/kg, the Vd/F [1, 4] was 4.9 L/kg and the half-life [1, 5] was 41.9 h. The Cmax [1, 5] was 27.3 ng/mL, the MRT [1, 5] was 65.5 h and the clearance [1, 5] was 3.33 mL/min/kg. It also gave a Vd/F [1, 5] of 9.9 L/kg, a half-life [1, 6] of 35.7 h and a Cmax [1, 6] of 31.7 ng/mL. It also gave an MRT [1, 6] of 48.7 h, a clearance [1, 6] of 5 mL/min/kg and a Vd/F [1, 6] of 13.2 L/kg. The half-life [1, 7] was 33 h, the Cmax [1, 7] was 31.7 ng/mL and the MRT [1, 7] was 60.5 h. It also gave a clearance [1, 7] of 3.33 mL/min/kg, a Vd/F [1, 7] of 8.5 L/kg and a bioavailability ([1]; female, Hereford-cross, bovine, plasma, other: intravaginal device, 1 g, Mean, intravaginal device AUClast versus single iv injection AUClast (unpublished data), corrected by dose) of 16%. For the same compound, the Tmax ([1]; female, Hereford-cross, bovine, plasma, other: intravaginal device, 1 g, post-device insertion, n=4, read-out: Time of maximal concentration in plasma (tmax)) was 24 h and the “Duration of letrozole release from the intravaginal device” value ([1]; post-insertion, inferred from plasma letrozole concentration profile) was 24 h.
